Assays:
[1] = system: HIV-1 latency establishment (HIVGKO reporter virus) in K562 cells; assay: HIVGKO dual-color reporter latency establishment in K562 cells (FACS); type: cell-based
Source text: While the effect of FOXO1 inhibitor treatment on productive infection has been tested (Trinite, B. et al. PLoS One 9, (2014)), its effect on latent HIV previously remained unknown. To test the potential of FOXO1 inhibition to affect HIV-1 latency, the new second-generation dual-color reporter virus HIVGKO (LTR-HIV-Δ-env-nefATG-csGFP-EF1α-mKO2) and the FOXO1 inhibitor AS1842856 were employed (FIG. 1, Panel A). In this system, latently-infected K562 cells express the mKO2 fluorophore, while cells containing a productive and active virus express both mKO2 and GFP fluorophores, the latter controlled by the HIV-1 LTR. […] Concomitantly, the proportion of actively infected cells increased. […] Thus, FOXO1 inhibition prevented HIV-1 latency establishment and increased the ratio between actively and latently infected cells.
Briefly, K562 cells were treated with increasing concentrations of the FOXO1 inhibitor AS1842856 just after HIVGKO infection. After 3-4 days, the percentage of latent cells and productive cells were quantified by FACS. In left panel, amount of productive or latent cells relative to the total infection rate (bars) and cell viability (dots). In the right panel, ratios of productive versus latent populations upon increasing concentrations of AS1842856 treatments. Data are represented as mean f SD of triplicate values, representative of three independent experiments. […]

[2] = system: J-Lat cells; assay: Cell viability of J-Lat cells by flow cytometry; type: cell-based
Experimental: FIG. 3, Panel A, depicts results of treatment of a J-Lat cell line 5A8 with increasing concentrations (1-10000 nM) of AS1842856 for 24, 48 and 72 h. HIV-GFP mRNA reactivation was assessed by RT-qPCR and normalized to RPL13A mRNA. Data represent average SD of three independent experiments. p-value relative to the control at each time point. FIG. 3, Panel B, depicts cell viability assessed by flow cytometry at 72 h of the same experiment as in A. Cell viability was measured by gating on both the live population at the forward scatter (FSC) and side scatter (SSC) plot and then the viable cells after staining with the viability dye. FIG. 3, Panel C, depicts results of treatment of J-Lat cell lines A2 and A72 with increasing concentrations of AS1842856 for 24, 48 and 72 h. HIV-GFP reactivation (bars) and cell viability (dots) were analyzed by FACS. HIV-GFP reactivation is reported as a percentage of GFP-expressing cells (% GFP+ cells). Data represent average f SD of at least three independent experiments. FIG. 3, Panel D, depicts the same experiments as in FIG. 3, Panel C, but performed in different J-Lat cell lines 5A8, 6.3, 11.1 and 15.4. Data represent average f SD of at least three independent experiments. 10 ng/mL TNFα was used as control. FIG. 3 Panel E depicts results of treatment of J-Lat cell lines 5A8, 6.3, 11.1 and 15.4 for 72 h with increasing concentrations of both AS1842856 (Y-axis) and TNFα (X-axis) alone or in combination and analyzed by FACS. Calculation of synergy for drug combinations using the Bliss independence model applied to the HIV-GFP reactivation measured as a percentage of GFP-expressing cells (% GFP+ cells).
FIG. 10, Panels A-F depict results of a J-Lat cell line 5A8 treated with different concentrations of inhibitors. FIG. 10, Panel A, depicts results for a J-Lat cell line A58 that was treated with increasing concentrations of A-92 (GCN2 inhibitor) in combination with 1000 nM AS1842856 (72 h) or 10 ng/mL TNFα (24 h). HIV-GFP reactivation was analyzed by FACS and relativized to the control condition. Histogram plots of percent live cells for each drug treatment are shown. FIG. 10, Panel B, depicts the same experiment as in FIG. 10, Panel A, but cells were treated with increasing concentrations of PKR inhibitor (PKRi). Histogram plots representing viability are also shown. Data are represented by mean±SD of three different […]. […] FIG. 10, Panel D, depicts a J-Lat cell line A58 that was treated with increasing concentrations of Ionomycin (0.01, 0.1, 0.5, 1 μM) for 24, 48 and 72 hr. HIV-GFP reactivation and cell viability were analyzed by FACS. FIG. 10, Panel E, depicts a J-Lat cell line 5A8 that was treated for 72 h with increasing concentrations of both Fenretinide (Y-axis) and Ionomycin (X-axis) alone or in combination and analyzed by FACS. HIV-GFP reactivation is reported as a percentage of GFP-expressing cells (% GFP+ cells). FIG. 10, Panel F, depicts a J-Lat cell line 5A8 that was also treated for 72 h with increasing concentrations of both Thapsigargin (Y-axis) and Cyclosporin A (X-axis) alone or in combination and analyzed by FACS. HIV-GFP reactivation is again reported as a percentage of GFP-expressing cells (% GFP+ cells).

[3] = system: HIV latency establishment (HIVGKO) in primary CD4+ T cells; assay: HIVGKO latency establishment in primary resting CD4+ T cells; type: cell-based, HIV-1; details: increasing doses, 72 hours

CCn1cc(C(=O)O)c(=O)c2c(N)c(F)c(NC3CCCCC3)cc21 [AS1842856, 5-amino-7-(cyclohexylamino)-1-ethyl-6-fluoro-4-oxo-1,4-dihydro-quinoline-3-carboxylic acid]
IC50 ([1]; Human immunodeficiency virus 1, K562, read-out: IC50 observed in the cell culture system): 60 nM
proportion of latently infected cells ([1]; K562, increasing concentrations): decreased
cell viability ([2]; J-Lat 5A8, 72 h): No major effects
cell viability ([2]; J-Lat A2 and A72): no effect
viability ([2]; four J-Lat clonal cell lines): unaffected
productive infection and establishment of latency [3]: promoted productive infection and decreased the establishment of latency
